Consider three compounds from patent US7528252B2, “Derivatives of triazoly-imidazopyridine useful as ligands of the adenosine A2a receptor and their use as medicaments” (Sigma-Tau Industrie Farmaceutiche Riunite S.p.A., priority 2002, dated 2009).

The conditions of data set [1]: literature (Ongini et al.); cited from earlier work.
Data set [2] deals with T1, human A2a receptor (Homo sapiens, UniProt P29274). Put plainly: biochemical.
Data set [3] has as its target T1, human A2a receptor. The following applies: ratio of receptor affinity (selectivity).
For data set [4], the target named is T2, human A2b receptor (Homo sapiens, UniProt P29275).
T2 construct: expressed in transfected cells; host or cells: HEK 293
T2 sequence (P29275 1-332): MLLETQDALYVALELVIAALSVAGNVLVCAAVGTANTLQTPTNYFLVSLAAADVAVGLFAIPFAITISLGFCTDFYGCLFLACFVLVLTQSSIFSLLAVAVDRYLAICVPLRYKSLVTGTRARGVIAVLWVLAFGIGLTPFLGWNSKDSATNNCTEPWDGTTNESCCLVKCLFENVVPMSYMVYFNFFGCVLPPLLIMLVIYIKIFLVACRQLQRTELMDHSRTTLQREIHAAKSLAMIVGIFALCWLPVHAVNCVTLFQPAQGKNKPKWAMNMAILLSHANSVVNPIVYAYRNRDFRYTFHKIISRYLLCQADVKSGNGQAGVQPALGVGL
Put plainly: Affinity towards the adenosine A2b receptor ([3H]-DPCPX binding, HEK 293 membranes). The conditions noted are these: read-out: A2b Ki (nM) ± sd. How it is done:
The interactive capacity of each product towards the adenosine A2b receptor was evaluated using membranes from HEK 293 cells stably expressing the human A2b receptor subtype exclusively.
Non-specific binding was measured in the presence of NECA (50 μM).
In binding studies for each compound, eight different concentrations (from 10^−5 M to 10^−12 M) were evaluated in order to obtain competition curves. By means of non-linear regression analysis of the competition curves, the IC50 values, which express the binding affinity of each product, were determined. Using the Cheng Prusoff equation (Ki=IC50/1+(L/Kd)) Ki values were calculated through which the affinity of each product studied, for the receptor investigated, is expressed.

The target in data set [5] is T3, human A1 subtype adenosine receptor (Homo sapiens, UniProt P30542).
T3 construct: expressed in transfected cells; host or cells: CHO-K1
T3 sequence (P30542 1-326): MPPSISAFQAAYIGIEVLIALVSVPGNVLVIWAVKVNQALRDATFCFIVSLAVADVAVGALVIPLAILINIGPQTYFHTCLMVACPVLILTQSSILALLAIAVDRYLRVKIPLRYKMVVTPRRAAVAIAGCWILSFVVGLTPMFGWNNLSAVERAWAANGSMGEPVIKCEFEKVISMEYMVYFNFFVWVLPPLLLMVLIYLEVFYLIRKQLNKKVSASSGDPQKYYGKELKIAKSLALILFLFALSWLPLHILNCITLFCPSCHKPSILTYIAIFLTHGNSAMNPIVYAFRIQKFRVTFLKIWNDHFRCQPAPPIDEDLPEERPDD
Put plainly: Affinity towards the adenosine A1 receptor ([3H]-DPCPX binding, CHO-K1 membranes). The conditions noted are these: read-out: A1 Ki (nM) ± sd.

The subject of data set [6] is CD1 male mice. The experiment in a line: Effects on spontaneous motor activity in mice. In kind it is in vivo. The following applies: mean ± s.e. How it is done: For this study, type CD1 male mice (n=8) were used. The effects of the products under study and of the reference compounds were evaluated using an apparatus consisting of a Plexiglas cage (40 cm×40 cm) surrounded by a series of photocells which monitor the movements of the animals placed inside, connected a computerised system, through which, the signals are collected and later elaborated.
Tests were carried out, after endoperitoneal administration of the products. 15 minutes after treatment, the treated animals, alternating with the controls, were placed inside the cage so as to record their spontaneous movements over a total period of 45 minutes broken down into two observation intervals (15′-45′ and 45′-60′, with respect to the time after treatment).
To examine the possible effects of the compounds studied on motor activity, the following parameters were considered: horizontal activity, vertical activity: total distance.
Except for CGS 21680 (reference compound, described in EP 0 277 917, Ciba-Geigy) which was dissolved in 0.9% NaCl, the products studied were solubilised in DMSO and then diluted in Cremofor EL and 0.9% NaCl (final concentrations: DMSO 15%, Cremofor EL 15%, NaCl 0.9%.

The conditions of data set [7]: El Yacoubi M; et al Eur. J. Pharm. 401 (2000) 63-77; cited from earlier work.
Data set [8] deals with CD1 male mice. The experiment in a line: Capacity of the products to induce catalepsy in mice. The class given is in vivo. The conditions noted are these: 60 mg/kg, endoperitoneal, 30 minutes prior to the test. On the procedure: 10 CD1 male mice were used per group. For this test, a steel bar, 10 cm long, was placed at a height of 4.5 cm above the support surface. Onto this, were placed the front legs of the animals. The presence of catalepsy was determined by measuring the time (in seconds) the animal remained in the posture placed. Later, this parameter was placed relatively, on a scale of rising values (0 to 5) through which, the degree of catalepsy determined in both control animals and in these subjected to treatment with the substances under test could be proportionately expressed.
The reference products and these in this study were administered endoperitoneally, in a volume of 10 ml/kg, 30 minutes prior to the test.
Except for CGS 21680 (reference compound) which was dissolved in 0.9% NaCl, the products in the study and the control antagonist ZM 241385 were solubilised in DMSO and then diluted in Cremofor EL and 0.9% NaCl (final concentrations: DMSO 15%, Cremofor EL 15%, NaCl 0.9%).

Setting [9] is: 15 mg/kg endoperitoneal, interval 15′-45′ from treatment.
[10] abbreviates: 15 mg/kg endoperitoneal, interval 45′-60′ from treatment.
Where [11] appears, read: 30 mg/kg endoperitoneal, interval 15′-45′ from treatment.
[12] abbreviates: 30 mg/kg endoperitoneal, interval 45′-60′ from treatment.
[13] abbreviates: 60 mg/kg endoperitoneal, interval 15′-45′ from treatment.
[14] abbreviates: 60 mg/kg endoperitoneal, interval 45′-60′ from treatment.

T1 sequence (P29274 whole entry): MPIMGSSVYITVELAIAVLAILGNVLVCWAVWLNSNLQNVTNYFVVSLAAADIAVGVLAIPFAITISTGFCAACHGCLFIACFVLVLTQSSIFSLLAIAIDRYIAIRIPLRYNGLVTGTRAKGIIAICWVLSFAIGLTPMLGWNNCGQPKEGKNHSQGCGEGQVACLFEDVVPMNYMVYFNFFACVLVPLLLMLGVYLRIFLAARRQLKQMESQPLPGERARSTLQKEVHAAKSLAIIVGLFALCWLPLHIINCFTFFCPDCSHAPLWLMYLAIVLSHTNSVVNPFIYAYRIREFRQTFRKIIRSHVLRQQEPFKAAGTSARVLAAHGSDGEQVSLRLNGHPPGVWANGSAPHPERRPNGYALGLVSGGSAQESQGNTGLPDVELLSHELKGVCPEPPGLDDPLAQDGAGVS

Turning to `CCn1c(=O)c2c(nc(/C=C/c3ccc(OC)c(OC)c3)n2C)n(CC)c1=O` [KW-6002], the “photoisomerisation of the ethylenic bond (stability)” value in data set [1] was “subject to loss of activity through photoisomerisation of the ethylenic bond”.
In general, Ki refers to the dissociation constant of the complex between target and ligand, obtained from inhibition or displacement. For `Cn1c(-n2nccn2)nc2c(N)nccc21` [ST 1680, 4-amino-1-methyl-2-(triazol-2-yl)-1(H)-imidazo[4,5-c]pyridino triflate], the inhibition constant Ki in data set [2] was 97 ± 23 nM; in data set [4], 926 ± 55 nM; in data set [5], 1560 ± 252 nM. The KiA1/KiA2a in data set [3] is 16.
In the case of `Nc1nc(NCCc2ccc(O)cc2)nc2nc(-c3ccco3)nn12` [ZM 241385, reference compound], the Horizontal activity in data set [6] (setting [9]) is listed as 8706 ± 473; in data set [6] (setting [10]), 4148 ± 241; in data set [6] (setting [11]) it was 7035 ± 709; in data set [6] (setting [12]) it was 3505 ± 375; in data set [6] (setting [13]), 7790 ± 980; in data set [6] (setting [14]), 4241 ± 407. Besides, the Total distance in data set [6] (setting [9]) amounted to 2280 ± 242; in data set [6] (setting [10]), 1022 ± 130; in data set [6] (setting [11]) it was 1725 ± 186; in data set [6] (setting [12]) it was 783 ± 165; in data set [6] (setting [13]) it was 2250 ± 401; in data set [6] (setting [14]), 1131 ± 158. The Vertical activity in data set [6] (setting [9]) turned out to be 680 ± 64; in data set [6] (setting [10]), 362 ± 78; in data set [6] (setting [11]) it was 613 ± 102; in data set [6] (setting [12]), 282 ± 37; in data set [6] (setting [13]), 570 ± 129; in data set [6] (setting [14]) it was 264 ± 56. Further, the bioavailability in vivo entry in data set [7] is given as “very low bioavailability”. Also, in data set [8], the “appearance of catalepsy in mice (FIG. 1)” value is listed as “none of them brought about the appearance of catalepsy in mice, analogous to the reference antagonist”.
